Data as given in patent US20060040980A1, “Ionophores as cancer chemotherapeutic agents” (priority 2004, published 2006).
“Also recorded” adds a separate entry of the source. Read-outs that look alike come from different tables or passages of the source. Blank lines part the entries; values can stand above or below the compound they belong to.

What was measured:
[1] = tested on: tumor cells; experiment: Modulation of CQ-mediated cell killing by anti-oxidants and zinc chelators; assay type: cell-based; details: added to CQ-treated cells
Text: Inventors then studied the effects of the addition of zinc chelators. Since Ca^++ has a lower affinity for EDTA than Zn^++, the addition of […] it.

[2] = tested on: Raji cells (a human B-cell Burkitt lymphoma line); experiment: MTS cell viability assay, Raji; assay type: cell-based; details: for IC50: Homo sapiens, Raji (B-cell), MTS assay, n = 3, read-out: IC50 (μM) towards human tumor cell lines; for Effect of added copper, zinc or iron on CQ's cytotoxic effects / Interaction of clioquinol and DHA in killing cells (isobologram analysis): Raji cells; for Effect of added copper, zinc or iron on CQ's cytotoxic effects: ZnCl2, CuCl2, FeCl2 premixed with 5 μM clioquinol, 72 h; for Interaction of clioquinol and DHA in killing cells (isobologram analysis): ratio of IC50s
Method: (§1) Cell viability was determined with the MTS assay. IC50 was calculated using nonlinear regression analysis (Prism 3.0). […] Data (n=3) are presented as means±S.E.M.
(§2) The CellTiter 96® Aqueous ONE Solution (Promega) was used to assess cellular viability via reduction of (3-(4,5-dimethylthiazol-2-yl)-5-(3carboxymethoxyphenyl)-2-(4-sulfophenyl)-2H-tetrazolium (MTS). An ELISA-based apoptosis assay kit was from Roche, and an anti-poly (ADP-ribose) polymerase (PARP) monoclonal antibody was from BIOMOL Research Laboratories Inc. Nude mice were from Animal Technology Limited. All other reagents were analytic grade.
(§3) DHL-4 cells were provided by Dr. Linda Boxer (Stanford University), A2780 cells by Dr. Stephen Howell (University of California, San Diego), SiHa cells by Dr. Doris Benbrook (University of Oklahoma). All other cells were obtained from the ATCC. Cells were routinely grown in a […], in an environment containing 5% CO2, and passed every three days. Cell viability was analyzed using the MTS assay. […] The MTS assay was performed using the protocol provided by the manufacturer. In short, 20 μL of MTS solution was added to each well, and cells were incubated at 37° C. for 1-2 h. The optical density (490 nm) of each well was then determined.
(§4) IC50 values were calculated with nonlinear regression analysis using Graphpad Prism 3.0 (Graphpad Software, Inc.).
(§5) The cells studied included human B-cell lymphoma lines (DHL-4, Raji), breast (MCF-7, MDA-MB231), ovarian (A2780), cervical (SiHa), bladder (T24), and pancreatic (Mpanc-96) cancer cells.
as §1
Inventors reasoned that the cytotoxic effects of a chelator would be overcome by an excess of the chelated metal. Inventors added increasing concentrations of copper, zinc or iron to cells treated with CQ. […] Cell viability was expressed as a percentage of untreated cells.

[3] = tested on: T24 (Bladder); experiment: MTS cell viability assay, T24; assay type: cell-based; details: Homo sapiens, read-out: IC50 (μM) of clioquinol towards human tumor cell lines, 72 h, n = 3
Text: as §2, §3, §4, §5

[4] = tested on: SiHa (cervical); experiment: MTS cell viability assay, SiHa; assay type: cell-based; details: Homo sapiens, read-out: IC50 (μM) of clioquinol towards human tumor cell lines, 72 h, n = 3
Text: as §2, §3, §4, §5

[5] = tested on: M-panc-96 (pancreas); experiment: MTS cell viability assay, M-panc-96; assay type: cell-based; details: Homo sapiens, MPANC96, read-out: IC50 (μM) of clioquinol towards human tumor cell lines, 72 h, n = 3
Text: as §2, §3, §4, §5

[6] = tested on: A2780 (a human ovarian cancer line) xenograft; experiment: A2780 xenograft in nude mice; assay type: in vivo; details: 28 mg/kg, 5 days a week
Method: Control animals were given Intralipid, without Cloquinol. […] Animals' weights were also measured 3 times a week.
In a separate experiment, nude mice were injected with the ovarian cancer cell line, A2780 and treated similarly. Mice were killed when the tumor reached 10% of their body weight.
Tumor size was calculated and expressed as […] .

[7] = tested on: mouse model of Alzheimer's disease; details: cited from earlier work
[8] = cited from earlier work
[9] = tested on: immortalized endothelial cell line (EAhy.926); experiment: Endothelial cell tube formation assay on Matrigel; assay type: cell-based; details: EAhy.926 on Matrigel
Method: An immortalized endothelial cell line (EAhy.926) was plated on Matrigel at a density of 15,000 per well in the absence or presence of the drugs indicated overnight at 37° C. Branch formation was used as a measure of tube formation. Each value was determined by averaging the number of branches per field (250×) in 3 representative fields. The final bFGF concentration was 5 ng/mL.

[10] = tested on: A2780 (ovarian); experiment: MTS cell viability assay, A2780; assay type: cell-based, human
Text: as §2, §3, §4, §5

[11] = tested on: patients with Alzheimer's disease; details: cited from earlier work
[12] = tested on: mouse brains; details: cited from earlier work
[13] = tested on: human cancer cell lines; experiment: Viability of eight human cancer cell lines (overall statement); assay type: cell-based
Text: as §2, §3, §4, §5

[14] = tested on: MCF-7 (breast); experiment: MTS cell viability assay, MCF-7; assay type: cell-based; details: Homo sapiens, MCF7, read-out: IC50 (μM) of clioquinol towards human tumor cell lines, 72 h, n = 3
Text: as §2, §3, §4, §5

[15] = tested on: DHL-4 (B-cell); experiment: MTS cell viability assay, DHL-4; assay type: cell-based; details: Homo sapiens, read-out: IC50 (μM) of clioquinol towards human tumor cell lines, 72 h, n = 3
Text: as §2, §3, §4, §5

[16] = tested on: MDA-MB-231 (breast); experiment: MTS cell viability assay, MDA-MB-231; assay type: cell-based; details: Homo sapiens, read-out: IC50 (μM) of clioquinol towards human tumor cell lines, 72 h, n = 3
Text: as §2, §3, §4, §5

[17] = tested on: tumor cells; experiment: Lipid peroxidation (thiobarbituric acid reactive substances) in CQ-treated tumor cells; assay type: cell-based; details: CQ treatment of tumor cells
[18] = tested on: Raji cells; experiment: Apoptosis ELISA (cytoplasmic histone-associated DNA fragments) and PARP/caspase-3 Western blot; assay type: cell-based, human; details: 24 h, PARP cleavage
Method: Western blot analysis was performed as previously described (57-59). Briefly, cells were lysed in a lysis buffer containing 50 MM Tris, pH 7.4, 50 mM NaCl, 0.5% NP-40, 50 mM NaF, 1 mM Na3VO4, 1 mM phenylmethylsulfonyl fluoride, 25 μg/ml leupeptin, and 25 μg/ml aprotinin. The lysates were centrifuged at 15,004×g for 15 min and the supernatants were collected for protein concentration determination, SDS-PAGE, and western blot analysis with specific antibodies, as described.
An ELISA-based kit (Roche Diagnostics Coup., Ind.) was used to quantitatively measure cytoplasmic histone-associated DNA fragments (mononucleosomes and oligonucleosomes), a measure of apoptosis, according to the manufacturer's instructions.
Cellular extracts were analyzed using an ELISA-based assay (Roche Diagnostics Corp., Indianapolis, Ind.) that quantifies release into the cytoplasm of histone-associated DNA fragments (mononucleosomes and oligonucleosomes), a measure of apoptosis. In addition, the lysates were subjected to SDS-PAGE followed by Western blotting using an anti-poly (ADP-ribose) polymerase (PARP) monoclonal antibody (clone C-2-10) to detect PARP cleavage, a sign of caspase-dependent apoptosis.
Cell lysates were prepared and apoptosis determined using an ELISA that quantified cytoplasmic DNA-histone complexes. […]

[19] = target: purified bovine erythrocyte SOD 1 (Bos taurus, UniProt P00442); experiment: SOD1 activity, xanthine oxidase/cytochrome C method, purified enzyme; details: purified bovine erythrocyte SOD 1, in vitro
[20] = tested on: A2780 cells; experiment: Cellular zinc level measurement with FluoZin-3; assay type: cell-based, human; details: A2780, 30 μM clioquinol, 1 h, increasing zinc
[21] = target: albumin (Homo sapiens, UniProt P02768); details: read-out: Affinity of binding to albumin; cited from earlier work
[22] = tested on: animals; details: high doses; cited from earlier work
[23] = tested on: Raji (a human B-cell lymphoma line) xenograft
[24] = oral, 750 mg a day, Alzheimer's trial

Chain of albumin (P02768 25-609): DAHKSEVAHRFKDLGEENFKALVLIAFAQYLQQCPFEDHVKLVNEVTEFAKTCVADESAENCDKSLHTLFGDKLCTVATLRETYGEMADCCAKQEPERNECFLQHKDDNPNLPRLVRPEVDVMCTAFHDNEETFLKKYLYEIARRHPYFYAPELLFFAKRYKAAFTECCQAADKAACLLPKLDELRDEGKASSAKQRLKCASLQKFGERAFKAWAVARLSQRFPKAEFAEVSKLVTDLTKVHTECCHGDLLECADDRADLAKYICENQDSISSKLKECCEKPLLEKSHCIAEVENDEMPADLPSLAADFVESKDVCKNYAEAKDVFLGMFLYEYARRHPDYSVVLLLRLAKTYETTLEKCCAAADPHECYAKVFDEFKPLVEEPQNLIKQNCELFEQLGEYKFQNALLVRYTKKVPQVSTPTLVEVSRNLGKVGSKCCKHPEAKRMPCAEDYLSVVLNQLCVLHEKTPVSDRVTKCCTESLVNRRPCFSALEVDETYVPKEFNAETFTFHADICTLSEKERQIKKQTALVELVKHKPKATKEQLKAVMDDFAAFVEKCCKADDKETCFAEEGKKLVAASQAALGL
Chain of purified bovine erythrocyte SOD 1 (P00442 whole entry): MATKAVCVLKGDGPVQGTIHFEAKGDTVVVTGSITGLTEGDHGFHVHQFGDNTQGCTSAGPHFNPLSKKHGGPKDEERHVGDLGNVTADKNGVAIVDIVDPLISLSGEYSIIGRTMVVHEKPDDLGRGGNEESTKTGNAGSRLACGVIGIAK

Compound: O=C([O-])CN(CCN(CC(=O)[O-])CC(=O)[O-])CC(=O)[O-].[Ca+2].[Na+].[Na+] [CaEDTA]
- Effect of zinc chelators on CQ-mediated cell killing [1]: decrease in CQ-mediated cell killing

- IC50 [2]: 85 µM
Compound: CC/C=C\C/C=C\C/C=C\C/C=C\C/C=C\C/C=C\CCC(=O)O [DHA, docosahexaenoic acid]

Compound: Cc1c(C)c2c(c(C)c1O)CCC(C)(C(=O)O)O2 (stereo not drawn) [Trolox]
- Protection of cells against CQ by anti-oxidants [1]: do not protect

Compound: O=C(O)CN(CCN(CC(=O)O)CC(=O)O)CC(=O)O.[Zn] [ZnEDTA]
- Effect of zinc chelators on CQ-mediated cell killing [1]: not

Compound: Oc1c(I)cc(Cl)c2cccnc12 [clioquinol, 5-chloro-7-iodo-8-hydroxyquinoline]
- IC50 [3]: 20 µM
- IC50 [4]: 38.8 µM
- IC50 [5]: 23.6 µM
- Survival of treated mice [6]: prolonged survival
- Tumor growth [6]: inhibited tumor growth
- Dose administered safely ([7]; mice): 30 mg/kg/day
- Sedimentable amyloid in the brains ([7]; mouse model of Alzheimer's disease): decrease
- Absorbed from the skin ([8]; man, in 12 hours): 40%
- Excreted in the urine after absorption from the GI tract ([8]; man, in 72 hours): 25%
- Serum half-life ([8]; man): about 12 hours
- Trough blood levels [8, 24]: about 25 μM
- Trough, steady-state blood levels [8, 24]: 7.6 µg/mL
- Trough blood levels ([8]; oral, 750 mg a day, Alzheimer's trial, listed as CQ): 25 µM
- Anti-angiogenic effect (cell survival and tube branches) [9]: anti-angiogenic effect
- Endothelial cell tube formation ([9]; bFGF 5 ng/mL, overnight): inhibited in a dose dependent manner
- Exposure time sufficient for full cytotoxicity ([10]; A2780 cells, time-course studies): 8 h
- IC50 ([10]; Homo sapiens, read-out: IC50 (μM) of clioquinol towards human tumor cell lines, A2780 (ovarian), 72 h, n = 3): 14.2 µM
- Neurotoxicity in patients ([11]; Australia, 36 patients, 250, 500, 750 mg a day over nine months with vitamin B12): No neurotoxicity
- Toxicity in patients ([11]; Sweden, 10 or 80 mg a day for 21 days): without experiencing toxicity
- Accumulation of vitamin B12 in the brain [12]: decreased
- IC50 ([13]; eight human cancer cell lines, 72 h, read-out: IC50s, range over all cell lines tested): 10 to 40 µM
- IC50s in killing human cancer cells (in words) ([13]; human cancer cells): low micromolar range
- IC50 [14]: 29.7 µM
- IC50 [15]: 6.7 µM
- IC50 [2]: 12.4 µM
- Effect of added copper, zinc or iron on CQ's cytotoxic effects [2]: potentiation
- Effect of added copper, zinc or iron on CQ's cytotoxic effects ([2]; listed as CQ): potentiated
- Interaction of clioquinol and DHA in killing cells (isobologram analysis) [2]: potentiate DHA; also recorded: synergy
- Interaction of clioquinol and DHA in killing cells (isobologram analysis) ([2]; listed as CQ): synergism
- IC50 [16]: 19.9 µM
- Lipid peroxidation (thiobarbituric acid reactive substances) [17]: does not lead to increased lipid peroxidation
- Induction of apoptosis [18]: induces apoptosis
- Effect on purified SOD 1 [19]: inhibition
- Zinc ionophore activity (fluorescent zinc indicator) [20]: is a zinc ionophore
- Zinc ionophore activity (fluorescent zinc indicator) ([20]; listed as CQ): is indeed an ionophore
- Kd [21]: 10 nM
- Neurotoxicity in animal studies [22]: can induce neurotoxicity
- Tumor growth ([23]; Raji xenograft, 28 mg/kg ip, 5 days a week): inhibition of tumor growth
- Signs of toxicity ([23]; mouse, in vivo, ip, 28 mg/kg): No animals exhibited signs of toxicity

Compound: [O-][n+]1ccccc1S [pyrithione, 2-mercaptopyridine 1-oxide]
- Anti-angiogenic effect (cell survival and tube branches) [9]: anti-angiogenic effect

Compound: vitamin E
- Protection of cells against CQ by anti-oxidants [1]: do not protect
